Test results published in patent US9326516B2, “Molecules having certain pesticidal utilities, and intermediates, compositions, and processes related thereto” (Dow AgroSciences LLC, priority 2014, dated 2016).

Assays:
Type in all cases: in vivo
[1] = tested on: Green Peach Aphid (Myzus persicae, MYZUPE); test: Bioassay on Green Peach Aphid (GPA), foliar spray on cabbage seedlings; settings: 72 h, 200 ppm spray on infested cabbage seedlings, graded after three days, Abbott corrected % control, read-out: GPA % Control (or Mortality) rating
Experimental: Certain molecules disclosed in this document were tested against GPA using procedures described in the following example. In the reporting of the results, the “GPA Rating Table” was used (See Table Section).
Cabbage seedlings grown in 3-inch pots, with 2-3 small (3-5 cm) true leaves, were used as test substrate. The seedlings were infested with 20-50 GPA (wingless adult and nymph stages) one day prior to chemical application. Four pots with individual seedlings were used for each treatment. Test compounds (2 mg) were dissolved in 2 mL of acetone/methanol (1:1) solvent, forming stock solutions of 1000 ppm test compound. The stock solutions were diluted 5× with 0.025% Tween 20 in water to obtain the solution at 200 ppm test compound. A hand-held aspirator-type sprayer was used for spraying a solution to both sides of […] leaves until runoff. Reference plants (solvent check) were sprayed with the diluent only containing 20% by volume of acetone/methanol (1:1) solvent. Treated plants were held in a holding room for three days at approximately 25° C. and ambient relative humidity (RH) prior to grading. Evaluation was conducted by counting the number of live aphids per plant under a microscope. Percent Control was measured by using Abbott's correction formula (W. S. Abbott, “A Method of Computing the Effectiveness of an Insecticide” J. Econ. Entomol. 18 (1925), pp. 265-267) as follows. Corrected % Control=100*(X−Y)/X where X=No. of live aphids on solvent check plants and Y=No. of live aphids on treated plants

[2] = tested on: Beet Armyworm (Spodoptera exigua, LAPHEG); test: Bioassay on Beet Armyworm (BAW), 128-well diet tray assay; settings: 168 h, 50 μg/cm^2 on artificial diet, second instar BAW larvae, 25° C., five to seven days, average of eight wells, read-out: BAW % Control (or Mortality) rating
Experimental: (§1) Certain molecules disclosed in this document were tested against BAW and CEW using procedures described in the following examples. In the reporting of the results, the “BAW & CL Rating Table” was used (See Table Section).
Bioassays on BAW were conducted using a 128-well diet tray assay. one to five second instar BAW larvae were placed in each well (3 mL) of the diet tray that had been previously filled with 1 mL of artificial diet to which 50 μg/cm^2 of the test compound (dissolved in 50 μL of 90:10 acetone-water mixture) had been applied (to each of eight wells) and then allowed to dry. Trays were covered with a clear self-adhesive cover and held at 25° C., 14:10 light-dark for five to seven days. Percent mortality was recorded for the larvae in each well; activity in the eight wells was then averaged. The results are indicated in the table entitled “Table ABC: Biological Results” (See Table Section).

[3] = tested on: Cabbage Looper (Trichoplusia ni, TRIPNI); test: Bioassay on Cabbage Looper (CL), 128-well diet tray assay; settings: 168 h, 50 μg/cm^2 on artificial diet, second instar CL larvae, 25° C., five to seven days, average of eight wells, read-out: CL % Control (or Mortality) rating
Experimental: as §1
Bioassays on CL were conducted using a 128-well diet tray assay, one to five second instar CL larvae were placed in each well (3 mL) of the diet tray that had been previously filled with 1 mL of artificial diet to which 50 μg/cm^2 of the test compound (dissolved in 50 μL of 90:10 acetone-water mixture) had been applied (to each of eight wells) and then allowed to dry. Trays were covered with a clear self-adhesive cover and held at 25° C., 14:10 light-dark for five to seven days. Percent mortality was recorded for the larvae in each well; activity in the eight wells was then averaged. The results are indicated in the table entitled “Table ABC: Biological Results” (See Table Section).

**Q.** Which results are given for `FC(F)(F)Oc1ccc(-n2cnc(-c3ccc(NC4=NC(c5ccc(Cl)cc5)CO4)cc3)n2)cc1` (stereo not drawn) [Compound F3, 4-(4-Chlorophenyl)-N-(4-(1-(4-(trifluoromethoxy)phenyl)-1H-1,2,4-triazol-3-yl)phenyl)-4,5-dihydrooxazol-2-amine]?
**A.** mortality at 200 ppm [1]: 0 to 80%; mortality at 50 µg/cm2 [2]: 50 to 100%; mortality at 50 µg/cm2 [3]: 50 to 100%

**Q.** What does the source list for `Cc1ccc(C2COC(Nc3ccc(-c4ncn(-c5ccc(OC(F)(F)F)cc5)n4)cc3)=N2)cc1` (stereo not drawn) [Compound F4, 4-(p-Tolyl)-N-(4-(1-(4-(trifluoromethoxy)phenyl)-1H-1,2,4-triazol-3-yl)phenyl)-4,5-dihydrooxazol-2-amine]?
**A.** mortality at 200 ppm [1]: 0%; mortality at 50 µg/cm2 [2]: 0%; mortality at 50 µg/cm2 [3]: 50 to 100%

**Q.** `COc1ccc(C2COC(Nc3ccc(-c4ncn(-c5ccc(OC(F)(F)F)cc5)n4)cc3)=N2)cc1` (stereo not drawn) [Compound F6, 4-(4-Methoxyphenyl)-N-(4-(1-(4-(trifluoromethoxy)phenyl)-1H-1,2,4-triazol-3-yl)phenyl)-4,5-dihydrooxazol-2-amine] was tested. Which mortality at 200 ppm [1] did it give?
**A.** 0%

**Q.** What about the mortality at 50 µg/cm2 [2] of the same compound?
**A.** 50 to 100%

**Q.** And the mortality at 50 µg/cm2 [3]?
**A.** 50 to 100%

**Q.** Which results are given for `FC(F)(F)Oc1ccc(-n2cnc(-c3ccc(NC4=NC(c5ccccc5)CO4)cc3)n2)cc1` (stereo not drawn) [Compound F7, 4-Phenyl-N-(4-(1-(4-(trifluoromethoxy)phenyl)-1H-1,2,4-triazol-3-yl)phenyl)-4,5-dihydrooxazol-2-amine]?
**A.** mortality at 200 ppm [1]: 80 to 100%; mortality at 50 µg/cm2 [2]: 50 to 100%; mortality at 50 µg/cm2 [3]: 50 to 100%

**Q.** Which mortality at 200 ppm [1] does the source give for `Fc1ccc(C2COC(Nc3ccc(-c4ncn(-c5ccc(OC(F)(F)F)cc5)n4)cc3)=N2)cc1` (stereo not drawn) [Compound F8, 4-(4-Fluorophenyl)-N-(4-(1-(4-(trifluoromethoxy)phenyl)-1H-1,2,4-triazol-3-yl)phenyl)-4,5-dihydrooxazol-2-amine] here?
**A.** 0 to 80%

**Q.** What about the mortality at 50 µg/cm2 [2] of the same compound?
**A.** 50 to 100%

**Q.** What about the mortality at 50 µg/cm2 [3] of the same compound?
**A.** 50 to 100%

**Q.** What does the source list for `FC(F)(F)Oc1ccc(-n2cnc(-c3ccc(NC4=NC(c5ccc(Br)cc5)CO4)cc3)n2)cc1` (stereo not drawn) [Compound F9, 4-(4-Bromophenyl)-N-(4-(1-(4-(trifluoromethoxy)phenyl)-1H-1,2,4-triazol-3-yl)phenyl)-4,5-dihydrooxazol-2-amine]?
**A.** mortality at 200 ppm [1]: 80 to 100%; mortality at 50 µg/cm2 [2]: 50 to 100%; mortality at 50 µg/cm2 [3]: 50 to 100%

**Q.** Which results are given for `FC(F)(F)Oc1ccc(-n2cnc(-c3ccc(NC4=NC(c5cccc(Cl)c5)CO4)cc3)n2)cc1` (stereo not drawn) [Compound F10, 4-(3-Chlorophenyl)-N-(4-(1-(4-(trifluoromethoxy)phenyl)-1H-1,2,4-triazol-3-yl)phenyl)-4,5-dihydrooxazol-2-amine]?
**A.** mortality at 200 ppm [1]: 0%; mortality at 50 µg/cm2 [2]: 0%; mortality at 50 µg/cm2 [3]: 50 to 100%

**Q.** Which mortality at 200 ppm [1] does the source give for `COc1ccc(C2COC(Nc3ccc(-c4ncn(-c5ccc(C(F)(F)F)cc5)n4)cc3)=N2)cc1` (stereo not drawn) [Compound F12, 4-(4-Methoxyphenyl)-N-(4-(1-(4-(trifluoromethyl)phenyl)-1H-1,2,4-triazol-3-yl)phenyl)-4,5-dihydrooxazol-2-amine] here?
**A.** 0%

**Q.** What about the mortality at 50 µg/cm2 [2] of the same compound?
**A.** 0%

**Q.** And the mortality at 50 µg/cm2 [3]?
**A.** 0%

**Q.** `Cc1ccc(C2COC(Nc3ccc(-c4ncn(-c5ccc(C(F)(F)F)cc5)n4)cc3)=N2)cc1` (stereo not drawn) [Compound F13, 4-(p-Tolyl)-N-(4-(1-(4-(trifluoromethyl)phenyl)-1H-1,2,4-triazol-3-yl)phenyl)-4,5-dihydrooxazol-2-amine] was tested. Which mortality at 200 ppm [1] did it give?
**A.** 0%

**Q.** And the mortality at 50 µg/cm2 [2]?
**A.** 0%

**Q.** What about the mortality at 50 µg/cm2 [3] of the same compound?
**A.** 0%

**Q.** `FC(F)(F)c1ccc(-n2cnc(-c3ccc(NC4=NC(c5ccccc5)CO4)cc3)n2)cc1` (stereo not drawn) [Compound F14, 4-Phenyl-N-(4-(1-(4-(trifluoromethyl)phenyl)-1H-1,2,4-triazol-3-yl)phenyl)-4,5-dihydrooxazol-2-amine] was tested. Which mortality at 200 ppm [1] did it give?
**A.** 0%

**Q.** And the mortality at 50 µg/cm2 [2]?
**A.** 0%

**Q.** And the mortality at 50 µg/cm2 [3]?
**A.** 0%

**Q.** What does the source list for `Fc1ccc(C2COC(Nc3ccc(-c4ncn(-c5ccc(C(F)(F)F)cc5)n4)cc3)=N2)cc1` (stereo not drawn) [Compound F15, 4-(4-Fluorophenyl)-N-(4-(1-(4-(trifluoromethyl)phenyl)-1H-1,2,4-triazol-3-yl)phenyl)-4,5-dihydrooxazol-2-amine]?
**A.** mortality at 200 ppm [1]: 0%; mortality at 50 µg/cm2 [2]: 50 to 100%; mortality at 50 µg/cm2 [3]: 50 to 100%

**Q.** `FC(F)(F)c1ccc(-n2cnc(-c3ccc(NC4=NC(c5ccc(Cl)cc5)CO4)cc3)n2)cc1` (stereo not drawn) [Compound F16, 4-(4-Chlorophenyl)-N-(4-(1-(4-(trifluoromethyl)phenyl)-1H-1,2,4-triazol-3-yl)phenyl)-4,5-dihydrooxazol-2-amine] was tested. Which mortality at 200 ppm [1] did it give?
**A.** 80 to 100%

**Q.** And the mortality at 50 µg/cm2 [2]?
**A.** 50 to 100%

**Q.** What about the mortality at 50 µg/cm2 [3] of the same compound?
**A.** 50 to 100%

**Q.** Which mortality at 200 ppm [1] does the source give for `FC(F)(F)Oc1ccc(C2COC(Nc3ccc(-c4ncn(-c5ccc(C(F)(F)F)cc5)n4)cc3)=N2)cc1` (stereo not drawn) [Compound F17, 4-(4-(Trifluoromethoxy)phenyl)-N-(4-(1-(4-(trifluoromethyl)phenyl)-1H-1,2,4-triazol-3-yl)phenyl)-4,5-dihydrooxazol-2-amine] here?
**A.** 0%

**Q.** And the mortality at 50 µg/cm2 [2]?
**A.** 50 to 100%

**Q.** And the mortality at 50 µg/cm2 [3]?
**A.** 50 to 100%

**Q.** For `FC(F)(F)c1ccc(-n2cnc(-c3ccc(NC4=NC(c5cccc(Cl)c5)CO4)cc3)n2)cc1` (stereo not drawn) [Compound F18, 4-(3-Chlorophenyl)-N-(4-(1-(4-(trifluoromethyl)phenyl)-1H-1,2,4-triazol-3-yl)phenyl)-4,5-dihydrooxazol-2-amine], which mortality at 200 ppm [1] is on record?
**A.** 0%

**Q.** And the mortality at 50 µg/cm2 [2]?
**A.** 50 to 100%

**Q.** What about the mortality at 50 µg/cm2 [3] of the same compound?
**A.** 50 to 100%

**Q.** For `FC(F)(F)c1ccc(-n2cnc(-c3ccc(NC4=NC(c5ccccc5Cl)CO4)cc3)n2)cc1` (stereo not drawn) [Compound F19, 4-(2-Chlorophenyl)-N-(4-(1-(4-(trifluoromethyl)phenyl)-1H-1,2,4-triazol-3-yl)phenyl)-4,5-dihydrooxazol-2-amine], which mortality at 200 ppm [1] is on record?
**A.** 0%

**Q.** And the mortality at 50 µg/cm2 [2]?
**A.** 0%

**Q.** And the mortality at 50 µg/cm2 [3]?
**A.** 50 to 100%

**Q.** What does the source list for `COc1ccc(C2CSC(Nc3ccc(-c4ncn(-c5ccc(OC(F)(F)F)cc5)n4)cc3)=N2)cc1` (stereo not drawn) [Compound F21, 4-(4-Methoxyphenyl)-N-(4-(1-(4-(trifluoromethoxy)phenyl)-1H-1,2,4-triazol-3-yl)phenyl)-4,5-dihydrothiazol-2-amine]?
**A.** mortality at 200 ppm [1]: 0%; mortality at 50 µg/cm2 [2]: 50 to 100%; mortality at 50 µg/cm2 [3]: 0%

**Q.** `Cc1ccc(C2CSC(Nc3ccc(-c4ncn(-c5ccc(OC(F)(F)F)cc5)n4)cc3)=N2)cc1` (stereo not drawn) [Compound F22, 4-(p-Tolyl)-N-(4-(1-(4-(trifluoromethoxy)phenyl)-1H-1,2,4-triazol-3-yl)phenyl)-4,5-dihydrothiazol-2-amine] was tested. Which mortality at 200 ppm [1] did it give?
**A.** 0%

**Q.** And the mortality at 50 µg/cm2 [2]?
**A.** 0%

**Q.** And the mortality at 50 µg/cm2 [3]?
**A.** 0%

**Q.** For `FC(F)(F)Oc1ccc(-n2cnc(-c3ccc(NC4=NC(c5ccccc5)CS4)cc3)n2)cc1` (stereo not drawn) [Compound F23, 4-Phenyl-N-(4-(1-(4-(trifluoromethoxy)phenyl)-1H-1,2,4-triazol-3-yl)phenyl)-4,5-dihydrothiazol-2-amine], which mortality at 200 ppm [1] is on record?
**A.** 0%

**Q.** And the mortality at 50 µg/cm2 [2]?
**A.** 0%

**Q.** And the mortality at 50 µg/cm2 [3]?
**A.** 0%

**Q.** How did the mortality at 200 ppm [1] turn out when `Fc1ccc(C2CSC(Nc3ccc(-c4ncn(-c5ccc(OC(F)(F)F)cc5)n4)cc3)=N2)cc1` (stereo not drawn) [Compound F24, 4-(4-Fluorophenyl)-N-(4-(1-(4-(trifluoromethoxy)phenyl)-1H-1,2,4-triazol-3-yl)phenyl)-4,5-dihydrothiazol-2-amine] was run?
**A.** 0%

**Q.** And the mortality at 50 µg/cm2 [2]?
**A.** 0 to 50%

**Q.** And the mortality at 50 µg/cm2 [3]?
**A.** 0 to 50%

**Q.** What does the source list for `FC(F)(F)Oc1ccc(-n2cnc(-c3ccc(NC4=NC(c5ccc(Cl)cc5)CS4)cc3)n2)cc1` (stereo not drawn) [Compound F25, 4-(4-Chlorophenyl)-N-(4-(1-(4-(trifluoromethoxy)phenyl)-1H-1,2,4-triazol-3-yl)phenyl)-4,5-dihydrothiazol-2-amine]?
**A.** mortality at 200 ppm [1]: 0%; mortality at 50 µg/cm2 [2]: 0%; mortality at 50 µg/cm2 [3]: 0%
